# From patent US8530504B2, “Pyrazolothiazole compound” (Eisai R&D Management Co., Ltd., priority 2009, dated 2013)
# Target: human CRFR1 (Homo sapiens (Human), UniProt P34998)
# Assay: CRFR1 Binding Test;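 note: nonspecific binding was determined with a 4,000-fold excess of unlabelled sauvagine and subtracted from every reading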
# Conditions: competition with 100 pM 125I-CRF, SPA method, membrane fraction of human CRFR1-expressing HEK293 cells; read-out: CRF1 receptor binding capacity IC50
# Sequence of human CRFR1 (P34998 24-415): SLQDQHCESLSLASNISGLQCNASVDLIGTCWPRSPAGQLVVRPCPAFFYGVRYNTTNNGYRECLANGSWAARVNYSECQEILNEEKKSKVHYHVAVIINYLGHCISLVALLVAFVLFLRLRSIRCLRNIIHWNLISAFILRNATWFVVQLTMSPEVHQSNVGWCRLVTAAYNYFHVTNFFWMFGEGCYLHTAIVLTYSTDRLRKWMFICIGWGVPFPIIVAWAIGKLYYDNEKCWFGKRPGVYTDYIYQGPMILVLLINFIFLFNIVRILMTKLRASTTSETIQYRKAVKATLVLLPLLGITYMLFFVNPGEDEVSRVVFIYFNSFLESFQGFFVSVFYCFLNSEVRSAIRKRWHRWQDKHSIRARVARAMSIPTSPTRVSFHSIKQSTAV
row,Compound,IC50 [µM]
1,"CCc1cc(OC)c(-c2csc3c(N(CC4CC4)CC4CCOC4)c(OC)nn23)c(OC)c1 (stereo not shown) [Example 23, Cyclopropylmethyl-[3-(4-ethyl-2,6-dimethoxy-phenyl)-6-methoxy-pyrazolo[5,1-b][1,3]thiazol-7-yl]-(tetrahydro-furan-3-ylmethyl)amine]",0.044
2,"COc1cc(Cl)cc(OC)c1-c1csc2c(N(CC3CC3)CC3CCOC3)c(OC)nn12 (stereo not shown) [Example 30, 3-(4-Chloro-2,6-dimethoxyphenyl)-N-(cyclopropylmethyl)-6-methoxy-N-(tetrahydrofuran-3-ylmethyl)pyrazolo[5,1-b][1,3]thiazole-7-amine]",0.049
3,"COCc1cc(OC)c(-c2csc3c(N(CCCF)c4cccnc4)c(OC)nn23)c(OC)c1 [Example 88, 3-[2,6-Dimethoxy-4-(methoxymethyl)phenyl]-N-(3-fluoropropyl)-6-methoxy-N-pyridin-3-ylpyrazolo[5,1-b][1,3]thiazole-7-amine]",0.053
4,"COCc1cc(OC)c(-c2csc3c(N(CC4CCC4)CC4C5COCC54)c(OC)nn23)c(OC)c1 (single isomer, unassigned; diastereomer 1) [Example 98, N-(Cyclobutylmethyl)-3-[2,6-dimethoxy-4-(methoxymethyl)phenyl]-6-methoxy-N-[3-oxabicyclo[3.1.0]hex-6-ylmethyl]-pyrazolo[5,1-b][1,3]thiazole-7-amine (diastereomer 1)]",0.088
5,"CCCCN(c1c(SC)nn2c(-c3c(OC)cc(COC)cc3OC)csc12)C1CCOCC1 [Example 106, N-Butyl-3-[2,6-dimethoxy-4-(methoxymethyl)phenyl]-6-(methylthio)-N-(tetrahydro-2H-pyran-4-yl)pyrazolo[5,1-b][1,3]thiazole-7-amine]",0.083
6,"CCCCN(CC1COCOC1)c1c(OC)nn2c(-c3c(OC)cc(COC)cc3OC)csc12 [Example 12, Butyl-[3-(2,6-dimethoxy-4-methoxymethyl-phenyl)-6-methoxy-pyrazolo[5,1-b][1,3]thiazol-7-yl)-[1,3]dioxan-5-ylmethyl-amine]",0.071
7,"COCc1cc(OC)c(-c2csc3c(N(CCCF)Cc4ccccn4)c(OC)nn23)c(OC)c1 [Example 72, 3-[2,6-Dimethoxy-4-(methoxymethyl)phenyl]-N-(3-fluoropropyl)-6-methoxy-N-(pyridin-2-ylmethyl)-pyrazolo[5,1-b][1,3]thiazole-7-amine]",0.075
8,"COc1cc(C#N)cc(OC)c1-c1csc2c(N(CC3CC3)CC3C4COCC43)c(OC)nn12 (single isomer, unassigned; diastereomer 1) [Example 100]",0.089
9,"COCc1cc(OC)c(-c2csc3c(N(CC4CC4)C4CCOC4)c(OC)nn23)c(OC)c1 (stereo not shown) [Example 13, N-(Cyclopropylmethyl)-3-[2,6-dimethoxy-4-(methoxymethyl)phenyl]-6-methoxy-N-(tetrahydrofuran-3-yl)pyrazolo[5,1-b][1,3]thiazole-7-amine]",0.056
10,"COCc1cc(OC)c(-c2c(SC)sc3c(N(CC4CCOCC4)CC4CC4)c(C)nn23)c(OC)c1 [Example 1, N-(Cyclopropylmethyl)-3-[2,6-dimethoxy-4-(methoxymethyl)phenyl]-6-methyl-2-(methylthio)-N-(tetrahydro-2H-pyran-4-ylmethyl)pyrazolo[5,1-b][1,3]thiazole-7-amine]",0.093
11,"CCCN(c1ccccn1)c1c(OC)nn2c(-c3c(OC)cc(COC)cc3OC)csc12 [Example 86, 3-[2,6-Dimethoxy-4-(methoxymethyl)phenyl]-6-methoxy-N-propyl-N-pyridin-2-ylpyrazolo[5,1-b][1,3]thiazole-7-amine]",0.033
12,"COCc1cc(OC)c(-c2csc3c(N(CCC(C)OC)CC4CC4)c(OC)nn23)c(OC)c1 (stereo not shown) [Example 50, N-(Cyclopropylmethyl)-3-[2,6-dimethoxy-4-(methoxymethyl)phenyl]-6-methoxy-N-(3-methoxybutyl)pyrazolo[5,1-b][1,3]thiazole-7-amine]",0.087
13,"COCc1cc(OC)c(-c2csc3c(N(CCOC(C)C)CC4CC4)c(OC)nn23)c(OC)c1 [Example 49, N-(Cyclopropylmethyl)-3-[2,6-dimethoxy-4-(methoxymethyl)phenyl]-N-(2-isopropoxyethyl)-6-methoxypyrazolo[5,1-b][1,3]thiazole-7-amine]",0.059
14,"CCCN(CCC)c1c(C)nn2c(-c3c(OC)cc(COC)cc3OC)c([S+](C)[O-])sc12 (stereo not shown) [Example 3, 3-[2,6-Dimethoxy-4-(methoxymethyl)phenyl]-6-methyl-2-(methylsulfinyl)-N,N-dipropylpyrazolo[5,1-b][1,3]thiazole-7-amine]",0.297
15,"COCc1cc(OC)c(-c2csc3c(N(CC4CC4)CC(C)OC)c(OC)nn23)c(OC)c1 (stereo not shown) [Example 51, N-(Cyclopropylmethyl)-3-[2,6-dimethoxy-4-(methoxymethyl)phenyl]-6-methoxy-N-(2-methoxypropyl)pyrazolo[5,1-b][1,3]thiazole-7-amine]",0.036
16,"COCCCN(c1c(OC)nn2c(-c3c(OC)cc(COC)cc3OC)csc12)C1CCCC1 [Example 63, N-Cyclopentyl-3-[2,6-dimethoxy-4-(methoxymethyl)phenyl]-6-methoxy-N-(3-methoxypropyl)pyrazolo[5,1-b][1,3]thiazole-7-amine]",0.061
17,"COCCN(c1c(OC)nn2c(-c3c(OC)cc(COC)cc3OC)csc12)C1CCCCC1 [Example 54, N-Cyclohexyl-3-[2,6-dimethoxy-4-(methoxymethyl)phenyl]-6-methoxy-N-(2-methoxyethyl)pyrazolo[5,1-b][1,3]thiazole-7-amine]",0.02
18,"CCOCc1cc(OC)c(-c2csc3c(N(CCOC)CC4CC4)c(OC)nn23)c(OC)c1 [Example 40, N-(Cyclopropylmethyl)-3-[4-(ethoxymethyl)-2,6-dimethoxyphenyl]-6-methoxy-N-(2-methoxyethyl)pyrazolo[5,1-b][1,3]thiazole-7-amine]",0.032
19,"CCOc1nn2c(-c3c(OC)cc(COC)cc3OC)csc2c1N(CC1CC1)C1CCOCC1 [Example 81, N-(Cyclopropylmethyl)-3-[2,6-dimethoxy-4-(methoxymethyl)phenyl]-6-ethoxy-N-(tetrahydro-2H-pyran-4-yl)-pyrazolo[5,1-b][1,3]thiazole-7-amine]",0.089
20,"CCCN(c1c(OC)nn2c(-c3c(OC)cc(COC(C)C)cc3OC)csc12)C1CCOCC1 [Example 68, [3-(4-Isopropoxymethyl-2,6-dimethoxyphenyl)-6-methoxy-pyrazolo[5,1-b][1,3]thiazol-7-yl]-propyl-(tetrahydro-pyran-4-yl)-amine]",0.077
21,"CCCN(c1c(OC)nn2c(-c3c(OC)cc(COC)cc3OC)c(C)sc12)C1CCOCC1 [Example 7, [3-(2,6-Dimethoxy-4-methoxymethyl-phenyl)-6-methoxy-2-methyl-pyrazolo[5,1-b][1,3]thiazol-7-yl]-propyl-(tetrahydro-pyran-4-yl)-amine]",0.094
22,"COCc1cc(OC)c(-c2csc3c(N(CC4CCOC4)CC4CC(F)(F)C4)c(OC)nn23)c(OC)c1 (stereo not shown) [Example 37, N-[(3,3-Difluorocyclobutyl)methyl]-3-[2,6-dimethoxy-4-(methoxymethyl)phenyl]-6-methoxy-N-(tetrahydrofuran-3-ylmethyl)pyrazolo[5,1-b][1,3]thiazole-7-amine]",0.095
